System: CD34+ cells from human umbilical cord blood
Assay: CD34+ cell culture and expansion while limiting differentiation (StemSpan ACF + CC110), flow cytometry
Assay type: cell-based
Method: CD34+ cells were isolated from human umbilical cord blood by positive selection according to standard procedures. Purified CD34+ cells from either single units or pooled from several units of cord blood were seeded in 1 mL of the appropriate culture medium in 24-well plates at a density of approximately 10^5 cells/mL. Cells were maintained at a density of 10^5-10^6 cells/mL throughout the culture by dilution and/or medium replacement.
For CD34+ cell culture and expansion while limiting differentiation, cells were grown in StemSpan™-ACF medium ([…]™ Technologies) supplemented with StemSpan™ CC110 cytokine cocktail ([…]™ Technologies), and counted on days 4, 7, 10, 14, 17, and 21.
Cell counts and viability were measured using the NucleoCounter NC-250™ Viability and Cell Count Assay system (ChemoMetec Inc., Davis, Calif.), according to the manufacturer's instructions.
Cell phenotypes were determined by flow cytometry on the indicated days using the following panel of labeled primary antibodies: CD34-FITC, CD45RA-APC, CD41a-APC, CD42b-PE, and CD235-PE.
CD34+ cells were isolated and cultured in a medium suitable for maintaining their self-renewal while limiting their differentiation into progenitors (StemSpan™ ACF supplemented with StemSpan™ CC110 cytokine cocktail, as described in Example 1.2).
Cell phenotypic profiles of the expanded CD34+ cells were determined on days 4, 7, 10, 14, 17, and 21 by flow cytometry as described in Example 1.3.

Cl.Cn1nnc(-c2ccc3c(c2)[nH]c2nc(Cc4ccccc4)nc(N[C@H]4CC[C@H](N)CC4)c23)n1 [PIC, (1r,4r)-N1-(2-benzyl-7-(2-methyl-2H-tetrazol-5-yl)-9H-pyrimido[4,5-b]indol-4-yl)cyclohexane-1,4-diamine hydrochloride]
expansion of CD34+/CD45RA− LT-HSCs (39° C. + PIC 35 nM, FIG. 3B): potently enhanced | Percentage of cells bearing CD34+ (Day 4, 37° C. + PIC 35 nM): 97.91% | Percentage of cells bearing CD34+/CD41+ (Day 4, 37° C. + PIC 35 nM): 12.51% | Percentage of cells bearing CD34+/CD235+ (Day 4, 37° C. + PIC 35 nM): 4.83% | Percentage of cells bearing CD41+ (Day 4, 37° C. + PIC 35 nM): 12.53% | Percentage of cells bearing CD42+ (Day 4, 37° C. + PIC 35 nM): 1.08% | Percentage of cells bearing CD45RA+ (Day 4, 37° C. + PIC 35 nM): 65.34% | Percentage of cells bearing CD235+ (Day 4, 37° C. + PIC 35 nM): 4.87% | Percentage of cells bearing CD34+ (Day 4, 39° C. + PIC 35 nM): 94.74% | Percentage of cells bearing CD34+/CD41+ (Day 4, 39° C. + PIC 35 nM): 8.37% | Percentage of cells bearing CD34+/CD235+ (Day 4, 39° C. + PIC 35 nM): 3.65% | Percentage of cells bearing CD41+ (Day 4, 39° C. + PIC 35 nM): 9.05% | Percentage of cells bearing CD42+ (Day 4, 39° C. + PIC 35 nM): 2.21% | Percentage of cells bearing CD45RA+ (Day 4, 39° C. + PIC 35 nM): 57.92% | Percentage of cells bearing CD235+ (Day 4, 39° C. + PIC 35 nM): 4.11% | Percentage of cells bearing CD34+ (Day 7, 37° C. + PIC 35 nM): 94.61% | Percentage of cells bearing CD34+/CD41+ (Day 7, 37° C. + PIC 35 nM): 15.74% | Percentage of cells bearing CD34+/CD235+ (Day 7, 37° C. + PIC 35 nM): 5.28% | Percentage of cells bearing CD41+ (Day 7, 37° C. + PIC 35 nM): 15.93% | Percentage of cells bearing CD42+ (Day 7, 37° C. + PIC 35 nM): 1.30% | Percentage of cells bearing CD45RA+ (Day 7, 37° C. + PIC 35 nM): 80.07% | Percentage of cells bearing CD34+ (Day 7, 39° C. + PIC 35 nM): 88.27% | Percentage of cells bearing CD34+/CD41+ (Day 7, 39° C. + PIC 35 nM): 16.17% | Percentage of cells bearing CD34+/CD235+ (Day 7, 39° C. + PIC 35 nM): 9.68% | Percentage of cells bearing CD41+ (Day 7, 39° C. + PIC 35 nM): 18.12% | Percentage of cells bearing CD42+ (Day 7, 39° C. + PIC 35 nM): 2.92% | Percentage of cells bearing CD45RA+ (Day 7, 39° C. + PIC 35 nM): 74.14% | Percentage of cells bearing CD235+ (Day 7, 39° C. + PIC 35 nM): 10.89% | Percentage of cells bearing CD34+ (Day 10, 37° C. + PIC 35 nM): 84.26% | Percentage of cells bearing CD34+/CD41+ (Day 10, 37° C. + PIC 35 nM): 12.94% | Percentage of cells bearing CD34+/CD235+ (Day 10, 37° C. + PIC 35 nM): 2.16% | Percentage of cells bearing CD41+ (Day 10, 37° C. + PIC 35 nM): 14.19% | Percentage of cells bearing CD42+ (Day 10, 37° C. + PIC 35 nM): 0.48% | Percentage of cells bearing CD45RA+ (Day 10, 37° C. + PIC 35 nM): 88.37% | Percentage of cells bearing CD235+ (Day 10, 37° C. + PIC 35 nM): 2.33% | Percentage of cells bearing CD34+ (Day 10, 39° C. + PIC 35 nM): 71.28% | Percentage of cells bearing CD34+/CD41+ (Day 10, 39° C. + PIC 35 nM): 20.80% | Percentage of cells bearing CD34+/CD235+ (Day 10, 39° C. + PIC 35 nM): 7.94% | Percentage of cells bearing CD41+ (Day 10, 39° C. + PIC 35 nM): 27.40% | Percentage of cells bearing CD42+ (Day 10, 39° C. + PIC 35 nM): 1.35% | Percentage of cells bearing CD45RA+ (Day 10, 39° C. + PIC 35 nM): 82.34% | Percentage of cells bearing CD235+ (Day 10, 39° C. + PIC 35 nM): 9.36% | Percentage of cells bearing CD34+ (Day 14, 37° C. + PIC 35 nM): 58.28% | Percentage of cells bearing CD34+/CD41+ (Day 14, 37° C. + PIC 35 nM): 9.55% | Percentage of cells bearing CD34+/CD45RA− (Day 14, 37° C. + PIC 35 nM): 15.22% | Percentage of cells bearing CD34+/CD235+ (Day 14, 37° C. + PIC 35 nM): 1.39% | Percentage of cells bearing CD41+ (Day 14, 37° C. + PIC 35 nM): 15.16% | Percentage of cells bearing CD42+ (Day 14, 37° C. + PIC 35 nM): 0.19% | Percentage of cells bearing CD45RA+ (Day 14, 37° C. + PIC 35 nM): 84.63% | Percentage of cells bearing CD235+ (Day 14, 37° C. + PIC 35 nM): 2.10% | Percentage of cells bearing CD34+ (Day 14, 39° C. + PIC 35 nM): 48.58% | Percentage of cells bearing CD34+/CD41+ (Day 14, 39° C. + PIC 35 nM): 13.88% | Percentage of cells bearing CD34+/CD45RA− (Day 14, 39° C. + PIC 35 nM): 19.74% | Percentage of cells bearing CD34+/CD235+ (Day 14, 39° C. + PIC 35 nM): 3.72% | Percentage of cells bearing CD41+ (Day 14, 39° C. + PIC 35 nM): 32.04% | Percentage of cells bearing CD42+ (Day 14, 39° C. + PIC 35 nM): 1.16% | Percentage of cells bearing CD45RA+ (Day 14, 39° C. + PIC 35 nM): 81.97% | Percentage of cells bearing CD34+ (Day 17, 37° C. + PIC 35 nM): 48.29% | Percentage of cells bearing CD34+/CD41+ (Day 17, 37° C. + PIC 35 nM): 9.75% | Percentage of cells bearing CD34+/CD45RA− (Day 17, 37° C. + PIC 35 nM): 13.58% | Percentage of cells bearing CD34+/CD235+ (Day 17, 37° C. + PIC 35 nM): 0.52% | Percentage of cells bearing CD41+ (Day 17, 37° C. + PIC 35 nM): 24.70% | Percentage of cells bearing CD42+ (Day 17, 37° C. + PIC 35 nM): 0.63% | Percentage of cells bearing CD45RA+ (Day 17, 37° C. + PIC 35 nM): 87.89% | Percentage of cells bearing CD235+ (Day 17, 37° C. + PIC 35 nM): 3.94% | differentiation of the cells towards the megakaryocytic and erythroid (CD235+) lineages (combined mild hyperthermia (39° C.) and PIC 35 nM): did not lead to an enhanced differentiation

— patent US11666600B2, “Methods for culturing and/or differentiating hematopoietic stem cells into progenitors and uses thereof” (HEMA-QUEBEC, priority 2015, dated 2023)
